Experimental findings from US7041682B2, “NK1 antagonists” (Schering Corporation, priority 2002, dated 2006) are described below.

A word on the pKi: it is the Ki on a negative log10 scale, so that one unit is a factor of ten. Read a high pKi as a small Ki.

pKi: −log10 of the molar value. Several values for one entry are separate records, joined by “and”; a condition that tells them apart may be missing. Equal entries are not always repeated.

NK1 receptor, sequence (P25103 whole entry, species assumed): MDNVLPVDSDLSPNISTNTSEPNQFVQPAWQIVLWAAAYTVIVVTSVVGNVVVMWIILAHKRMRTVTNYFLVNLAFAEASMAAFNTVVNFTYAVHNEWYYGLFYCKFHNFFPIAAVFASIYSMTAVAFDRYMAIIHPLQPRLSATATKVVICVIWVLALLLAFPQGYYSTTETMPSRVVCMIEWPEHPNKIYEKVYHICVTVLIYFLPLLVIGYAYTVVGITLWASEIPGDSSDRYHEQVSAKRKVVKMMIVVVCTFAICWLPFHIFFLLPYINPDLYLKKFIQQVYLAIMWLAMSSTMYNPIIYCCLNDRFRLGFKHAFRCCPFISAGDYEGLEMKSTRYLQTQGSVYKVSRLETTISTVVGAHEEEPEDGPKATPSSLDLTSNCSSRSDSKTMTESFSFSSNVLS

For the test, the target named is NK1 receptor (Homo sapiens, UniProt P25103). As to the kind of experiment: NK1 receptor binding: inhibition of the NK1 agonist Substance P, Ki from percent of maximum specific binding. The note with it: inhibition constant from the concentration giving 50% inhibition of binding (Chang-Prusoff equation). The source says:
The in vitro and in vivo NK1, NK2 and NK3 activities of the compounds having the formula (I) can be determined by various procedures known in the art, such as a test for their ability to inhibit the activity of the NK1 agonist Substance P. The percent inhibition of neurokinin agonist activity is the difference between the percent of maximum specific binding (“MSB”) and 100%. The percent of MSB is defined by the following equation, wherein “dpm” represents “disintegrations per minute”:
[formula] The concentration at which the compound produces 50% inhibition of binding is then used to determine an inhibition constant (“Ki”) using the Chang-Prusoff equation. In vivo activity may be measured by inhibition of an agonist-induced foot tapping in a gerbil, as described in Science, 281, 1640–1695 (1998), which is herein incorporated by reference thereto.
As to `O=c1[nH]ncn1N1CCC(COCc2cc(C(F)(F)F)cc(C(F)(F)F)c2)(c2ccccc2)CC1` [Example 64], the pKi is 8.52 to 9.52.

`O=C1NCCN1N1CCC(COCc2cc(C(F)(F)F)cc(C(F)(F)F)c2)(c2ccccc2)CC1` [Example 51] gave a pKi of 8.52 to 9.52.

Turning to `O=C1CCCN1N1CCC(COC(CO)c2cc(C(F)(F)F)cc(C(F)(F)F)c2)(c2ccccc2)CC1` (centres unmarked) [Example 57], the pKi is 8.52 to 9.52.

`O=C1CCCN1N1CCC(COCc2cc(C(F)(F)F)cc(C(F)(F)F)c2)(c2ccccc2)CC1` [Example 49] had a pKi of 8.52 to 9.52.

As to `C[C@@H](OCC1(c2ccccc2)CCN(N2CCCC2=O)CC1)c1cc(C(F)(F)F)cc(C(F)(F)F)c1` [Example 56], the pKi was 8.52 to 9.52 and ~9.52.
